Measured values reported in ChEMBL document CHEMBL1146931, “Inhibitors of VEGF receptors-1 and -2 based on the 2-((pyridin-4-yl)ethyl)pyridine template” (Bioorg Med Chem Lett, 2006).

Assays:
[1] = test system: Caco-2; assay: Intrinsic permeability in Caco-2 cells; conditions: human
[2] = biological target: Vascular endothelial growth factor receptor 1 (Homo sapiens, UniProt P17948)
Description: Inhibition of VEGFR1 phosphorylation in presence of 2 uM ATP by HTRF assay

[3] = biological target: T1, Vascular endothelial growth factor receptor 2 (Homo sapiens, UniProt P35968)
Description: Inhibition of VEGFR2 phosphorylation in presence of 2 uM ATP by HTRF assay

[4] = biological target: T1, Vascular endothelial growth factor receptor 2; assay: Inhibition of VEGFR2 phosphorylation in HEK293 cells by cell-based ELISA
[5] = biological target: T1, Vascular endothelial growth factor receptor 2; assay: Binding affinity to VEGFR2 at 0.043 uM
[6] = biological target: T1, Vascular endothelial growth factor receptor 2; assay: Binding affinity to VEGFR2 at 0.031 uM
[7] = biological target: T1, Vascular endothelial growth factor receptor 2; assay: Binding affinity to VEGFR2 at 0.058 uM

T1 sequence (P35968 whole entry): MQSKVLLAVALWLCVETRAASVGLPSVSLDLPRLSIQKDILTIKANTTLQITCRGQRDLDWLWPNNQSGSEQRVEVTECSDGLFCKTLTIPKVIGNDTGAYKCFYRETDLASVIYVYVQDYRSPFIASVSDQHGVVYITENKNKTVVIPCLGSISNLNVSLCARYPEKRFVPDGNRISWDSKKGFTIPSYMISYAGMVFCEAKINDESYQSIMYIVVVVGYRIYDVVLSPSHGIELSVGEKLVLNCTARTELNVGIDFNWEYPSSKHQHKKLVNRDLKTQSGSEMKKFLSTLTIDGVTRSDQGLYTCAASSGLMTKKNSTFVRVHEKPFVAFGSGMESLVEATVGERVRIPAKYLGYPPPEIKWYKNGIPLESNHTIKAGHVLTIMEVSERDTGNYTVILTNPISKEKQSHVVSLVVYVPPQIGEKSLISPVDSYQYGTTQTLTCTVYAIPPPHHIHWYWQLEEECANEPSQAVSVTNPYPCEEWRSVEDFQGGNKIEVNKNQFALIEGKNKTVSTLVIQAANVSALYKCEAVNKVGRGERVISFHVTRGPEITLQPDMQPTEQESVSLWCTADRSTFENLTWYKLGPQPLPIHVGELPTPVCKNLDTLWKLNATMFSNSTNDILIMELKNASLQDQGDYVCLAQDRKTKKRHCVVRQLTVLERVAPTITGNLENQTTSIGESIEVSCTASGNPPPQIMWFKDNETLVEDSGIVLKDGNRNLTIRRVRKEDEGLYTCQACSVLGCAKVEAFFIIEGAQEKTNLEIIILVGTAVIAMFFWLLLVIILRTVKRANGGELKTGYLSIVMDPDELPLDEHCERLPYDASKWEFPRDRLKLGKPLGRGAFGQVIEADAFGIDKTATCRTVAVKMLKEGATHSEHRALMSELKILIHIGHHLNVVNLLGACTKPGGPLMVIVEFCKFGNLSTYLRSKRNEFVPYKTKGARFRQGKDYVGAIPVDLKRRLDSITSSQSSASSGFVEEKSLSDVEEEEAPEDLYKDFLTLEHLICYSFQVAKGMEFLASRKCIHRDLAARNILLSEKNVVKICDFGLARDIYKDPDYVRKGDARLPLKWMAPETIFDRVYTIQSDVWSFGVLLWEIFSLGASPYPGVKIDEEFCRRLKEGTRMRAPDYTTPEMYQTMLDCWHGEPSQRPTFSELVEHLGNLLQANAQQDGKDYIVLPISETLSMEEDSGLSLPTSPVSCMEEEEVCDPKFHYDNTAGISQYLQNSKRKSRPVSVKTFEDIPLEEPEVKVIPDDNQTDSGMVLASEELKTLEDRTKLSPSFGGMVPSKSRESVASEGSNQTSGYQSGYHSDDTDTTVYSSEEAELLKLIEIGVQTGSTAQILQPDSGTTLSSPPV
Sequence of Vascular endothelial growth factor receptor 1 (P17948 whole entry): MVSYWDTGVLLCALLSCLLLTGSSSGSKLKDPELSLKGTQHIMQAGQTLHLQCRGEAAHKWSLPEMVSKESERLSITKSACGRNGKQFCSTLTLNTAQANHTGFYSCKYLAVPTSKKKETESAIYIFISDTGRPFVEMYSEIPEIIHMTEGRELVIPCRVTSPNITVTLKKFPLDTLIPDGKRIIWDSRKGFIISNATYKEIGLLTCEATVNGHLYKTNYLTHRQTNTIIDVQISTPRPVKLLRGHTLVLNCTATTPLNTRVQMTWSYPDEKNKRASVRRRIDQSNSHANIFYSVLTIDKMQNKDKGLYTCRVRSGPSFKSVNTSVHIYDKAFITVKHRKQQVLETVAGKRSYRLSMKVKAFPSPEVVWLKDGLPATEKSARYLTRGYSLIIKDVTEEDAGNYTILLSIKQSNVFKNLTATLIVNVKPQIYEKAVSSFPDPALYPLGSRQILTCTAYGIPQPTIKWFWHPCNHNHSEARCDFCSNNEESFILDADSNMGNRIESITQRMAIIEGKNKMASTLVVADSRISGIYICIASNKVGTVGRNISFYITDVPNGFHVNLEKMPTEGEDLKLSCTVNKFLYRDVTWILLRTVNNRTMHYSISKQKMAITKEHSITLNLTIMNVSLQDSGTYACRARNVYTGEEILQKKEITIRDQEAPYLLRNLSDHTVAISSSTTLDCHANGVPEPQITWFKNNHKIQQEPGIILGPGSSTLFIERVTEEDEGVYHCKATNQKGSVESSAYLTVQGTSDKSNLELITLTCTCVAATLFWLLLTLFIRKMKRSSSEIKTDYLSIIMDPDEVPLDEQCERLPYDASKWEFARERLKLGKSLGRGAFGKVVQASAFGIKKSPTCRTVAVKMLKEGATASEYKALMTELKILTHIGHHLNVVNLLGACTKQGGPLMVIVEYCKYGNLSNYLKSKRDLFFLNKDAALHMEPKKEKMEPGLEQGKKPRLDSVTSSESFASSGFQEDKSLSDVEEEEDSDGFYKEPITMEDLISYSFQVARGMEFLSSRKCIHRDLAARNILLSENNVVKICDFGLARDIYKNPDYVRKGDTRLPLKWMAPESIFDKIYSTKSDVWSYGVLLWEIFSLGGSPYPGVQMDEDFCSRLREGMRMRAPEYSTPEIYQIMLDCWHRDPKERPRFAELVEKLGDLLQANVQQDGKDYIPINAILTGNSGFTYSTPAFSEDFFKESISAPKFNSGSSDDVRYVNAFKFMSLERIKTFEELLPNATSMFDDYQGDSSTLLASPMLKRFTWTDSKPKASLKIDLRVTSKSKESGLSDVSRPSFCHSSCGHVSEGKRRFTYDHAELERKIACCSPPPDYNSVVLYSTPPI

Row | SMILES | Pm [1] | IC50 [2] | IC50 [3] | IC50 ([4]; read-out: IC50) | Ki [5] | Ki [6] | IC50 ([4]; hek293) | Ki [7]
1 | O=C(Nc1cnc2ccccc2c1)c1ccccc1NCc1ccncc1 | 17.3 10^-5 cm/min |  |  |  |  |  |  | 
2 | Cc1cccc(Nc2nnc(-c3cccnc3CCc3ccncc3)o2)c1 |  | 1.07 µM | 0.77 µM | 2.14 µM |  |  |  | 
3 | CC(C)(C)c1ccc(Nc2nnc(-c3cc4ccccc4nc3CCc3ccncc3)o2)cc1 |  | > 10 µM | > 10 µM |  |  |  |  | 
4 | CC(C)(C)c1ccc(Nc2nnc(-c3cccnc3CCc3ccncc3)o2)cc1 |  | 0.77 µM | 0.043 µM | 0.063 µM | 0.13 µM |  |  | 
5 | FC(F)(F)c1cccc(Nc2nnc(-c3cnccc3CCc3ccncc3)o2)c1 |  | 1.22 µM | 0.72 µM | 2.54 µM |  |  |  | 
6 | FC(F)(Cl)Oc1ccc(Nc2nnc(-c3ccncc3CCc3ccncc3)o2)cc1 |  | 0.81 µM | 0.22 µM | 0.53 µM |  |  |  | 
7 | FC(F)(F)c1cccc(Nc2nnc(-c3cccnc3CCc3cccc4ncccc34)o2)c1 |  | > 10 µM | 5.64 µM | > 10 µM |  |  |  | 
8 | Cc1ccccc1Nc1nnc(-c2cccnc2CCc2ccncc2)o1 |  | > 10 µM | > 10 µM |  |  |  |  | 
9 | FC(F)(F)c1cccc(Nc2nnc(-c3cc4ccccc4nc3CCc3ccncc3)o2)c1 |  | > 10 µM | > 10 µM | > 10 µM |  |  |  | 
10 | FC(F)(F)c1cccc(Nc2nnc(-c3cccnc3CCc3ccc4ccccc4n3)o2)c1 |  | > 10 µM | > 10 µM | > 10 µM |  |  |  | 
11 | c1ccc2ncc(Nc3nnc(-c4cc5ccccc5nc4CCc4ccncc4)o3)cc2c1 |  | > 10 µM | > 10 µM |  |  |  |  | 
12 | Fc1ccc(CCc2ncccc2-c2nnc(Nc3cccc(C(F)(F)F)c3)o2)cc1F |  | > 10 µM | > 10 µM | > 10 µM |  |  |  | 
13 | FC(F)(F)c1cccc(Nc2nnc(-c3cccnc3CCc3ccccn3)o2)c1 |  | > 10 µM | > 10 µM | > 10 µM |  |  |  | 
14 | c1ccc(-c2ccc(Nc3nnc(-c4cccnc4CCc4ccncc4)o3)cc2)cc1 |  | > 10 µM | 2.63 µM |  |  |  |  | 
15 | FC(F)(F)c1ccc(Nc2nnc(-c3ccncc3CCc3ccncc3)o2)cc1 |  | 0.84 µM | 0.29 µM | 0.72 µM |  |  |  | 
16 | FC(F)(F)c1cccc(Nc2nnc(-c3cccnc3CCc3cccnc3)o2)c1 |  | > 10 µM | > 10 µM | > 10 µM |  |  |  | 
17 | FC(F)(F)c1cccc(Nc2nnc(-c3cccnc3CCc3ccc4[nH]ncc4c3)o2)c1 |  | > 10 µM | 3.87 µM | > 10 µM |  |  |  | 
18 | FC(F)(F)Oc1ccc(Nc2nnc(-c3ccncc3CCc3ccncc3)o2)cc1 |  | 0.93 µM | 0.35 µM | 0.66 µM |  |  |  | 

Second part, the compound after the results:

Row | Pm [1] | IC50 [2] | IC50 [3] | IC50 ([4]; read-out: IC50) | Ki [5] | Ki [6] | IC50 ([4]; hek293) | Ki [7] | SMILES
19 |  | 0.27 µM | 0.079 µM | 0.094 µM |  |  |  |  | Clc1ccc(Nc2nnc(-c3cccnc3CCc3ccncc3)o2)cc1Cl
20 |  | 0.22 µM | 0.19 µM | 0.32 µM |  |  |  |  | CC(C)(C)c1ccc(Nc2nnc(-c3ccncc3CCc3ccncc3)o2)cc1
21 |  | 0.5 µM | 0.17 µM | 0.29 µM |  |  |  |  | COc1cccc(Nc2nnc(-c3cccnc3CCc3ccncc3)o2)c1
22 |  | 0.67 µM | 0.44 µM | 0.74 µM |  |  |  |  | FC(F)(F)c1ccc(Nc2nnc(-c3cnccc3CCc3ccncc3)o2)cc1
23 |  | 0.73 µM | 0.031 µM | 0.044 µM |  | 0.1 µM |  |  | FC(F)(Cl)Oc1ccc(Nc2nnc(-c3cccnc3CCc3ccncc3)o2)cc1
24 |  | 0.71 µM | 0.47 µM | 0.86 µM |  |  |  |  | FC(F)(F)Oc1cccc(Nc2nnc(-c3ccncc3CCc3ccncc3)o2)c1
25 | 42.6 10^-5 cm/min | 0.26 µM | 0.069 µM | 0.11 µM |  |  |  |  | FC(F)(F)Oc1cccc(Nc2nnc(-c3cccnc3CCc3ccncc3)o2)c1
26 |  | 0.44 µM | 0.38 µM |  |  |  | Not Active |  | c1cnc(CCc2ccncc2)c(-c2nnc(Nc3cnc4ccccc4c3)o2)c1
27 |  | 0.47 µM | 0.36 µM | 0.51 µM |  |  |  |  | FC(F)(F)Oc1ccc(Nc2nnc(-c3cnccc3CCc3ccncc3)o2)cc1
28 |  | 0.27 µM | 0.25 µM | 0.39 µM |  |  |  |  | CC(C)c1ccc(Nc2nnc(-c3ccncc3CCc3ccncc3)o2)cc1
29 |  | 0.62 µM | 0.051 µM | 0.075 µM |  |  |  |  | CC(C)c1ccc(Nc2nnc(-c3cccnc3CCc3ccncc3)o2)cc1
30 |  | 0.56 µM | 0.044 µM | 0.051 µM |  |  |  |  | FC(F)(F)Oc1ccc(Nc2nnc(-c3cccnc3CCc3ccncc3)o2)cc1
31 |  | 0.32 µM | 0.058 µM | 0.076 µM |  |  |  | 0.12 µM | FC(F)(F)c1ccc(Nc2nnc(-c3cccnc3CCc3ccncc3)o2)cc1
32 |  | 0.74 µM | 0.55 µM | 0.76 µM |  |  |  |  | FC(F)(F)Oc1cccc(Nc2nnc(-c3cnccc3CCc3ccncc3)o2)c1
33 |  | 0.76 µM | 0.56 µM | 1.11 µM |  |  |  |  | FC(F)(F)c1cccc(Nc2nnc(-c3ccncc3CCc3ccncc3)o2)c1
34 |  | 0.53 µM | 0.44 µM | 0.59 µM |  |  |  |  | FC(F)(Cl)Oc1ccc(Nc2nnc(-c3cnccc3CCc3ccncc3)o2)cc1
35 |  | 0.12 µM | 0.087 µM | 0.092 µM |  |  |  |  | Cc1ccc(Nc2nnc(-c3cccnc3CCc3ccncc3)o2)cc1C(F)(F)F
36 |  | 0.18 µM | 0.067 µM | 0.11 µM |  |  |  |  | COc1ccc(Nc2nnc(-c3cccnc3CCc3ccncc3)o2)cc1OC
37 | 23.6 10^-5 cm/min | 0.14 µM | 0.085 µM | 0.29 µM |  |  |  |  | c1cnc(CCc2ccncc2)c(-c2nnc(NCc3ccc4c(c3)OCO4)o2)c1
38 |  | 0.48 µM | 0.31 µM | 0.52 µM |  |  |  |  | CC(C)(C)c1ccc(Nc2nnc(-c3cnccc3CCc3ccncc3)o2)cc1
39 |  | 0.22 µM | 0.064 µM | 0.11 µM |  |  |  |  | FC(F)(F)c1cccc(Nc2nnc(-c3cccnc3CCc3ccncc3)o2)c1
